Data on 2 molecules can be found in patent US12129312B2, “Peptide compound, application thereof and composition containing same” (priority 2017, dated 2024).

Format in all cases: in vitro ADME
Data set [1] in a line: Plasma stability, rat plasma. The settings on record: 37° C., time points 0 minute, 1, 2 and 4 hours, LC-MS/MS, read-out: Rat plasma (T1/2 (h)) (converted). The method, then: (§1) 1. Preparation of 50 mM Phosphate Buffer (50 mM Sodium Phosphate and 70 mM NaCl):
(§2) 5.750 g of Na2HPO4, 1.141 g of NaH2PO4 and 4.095 g of NaCl (Shanghai Titan) were weighed and dissolved in 1000 mL of ultrapure water and the pH was adjusted to 7.4. The prepared phosphate buffer was stored in the refrigerator at 4° C., valid for one week.
(§3) 2. Preparation of Compound Stock Solution:
(§4) 1) 5 mg/mL test compound: 5 mg of compound was weighed and dissolved in 1 mL of DMSO.
(§5) 2) 20 mM control: 2.728 mg of nococaine was dissolved in 0.5 mL of DMSO. 3.878 mg of fenfluramide was dissolved in 0.5 mL of DMSO (Amresco).
(§6) 3. Preparation of Experimental Plasma:
(§7) The frozen plasma (human: Shanghai ChemPartner, Rat, Mouse: Shanghai Xipuer-Beikai, Dog, Monkey: Suzhou Xishan Zhongke) was taken out from the −80° C. refrigerator, immediately placed in a 37° C. water bath, and thawn with gentle shaking. The thawed plasma was poured into a centrifuge tube, and centrifuged at 3000 rpm for 8 minutes. The supernatant was collected for the experiment. The pH of the plasma was measured with a pH meter (METTLER TOLEDO), and only the plasma with a pH between 7.4 and 8 was used for the experiment. The plasma was placed on an ice bath for later use.
4. Preparation of the Dosing Solution: […]

Data set [2] can be described thus: Plasma stability, mouse plasma. The settings on record: 37° C., 0-4 hours, LC-MS/MS, "Very long" = no significant degradation found in the test (4 hours). The method, then: as §1, §2, §3, §4, §5, §6, §7
(§8) 4. Preparation of the Dosing Solution:
(§9) 1) 125 μg/mL test compound solution: 5 μL of 5 mg/mL test compound (see step 2) was added to 195 μL DMSO; 500 μM control solution: 20 mM control stock solution (see step 2) was added to 195 μL DMSO.
(§10) 2) 0.5% BSA phosphate buffer solution: 0.05 g of BSA was added to 10 mL of phosphate buffer (see step 1).
(§11) 3) 5 μg/mL test compound dosing solution: 40 μL of 125 μg/mL test compound solution was added to 960 μL of 0.5% BSA phosphate buffer solution, shaken and mixed evenly, and the dosing solution was placed in a 37° C. water bath and preheated for 5 minutes.
(§12) 20 μM control dosing solution: 40 μL of 500 μM control solution was added to 960 μL of 0.5% BSA phosphate buffer solution, shaken and mixed evenly, and the dosing solution was placed in a 37° C. water bath and preheated for 5 minutes.
(§13) 5. 10 μL of 5 μg/mL test compound and 20 μM control solution were added to the wells of the 96-well plate set at different time points (0 minute, 1 hour, 2 hours and 4 hours). The number of duplicate samples was 3.
(§14) 6. 500 μL of ACN (IS) containing 5% FA was added to the wells set at 0 minute. 90 μL of plasma was then added thereto, mixed evenly, sealed with the film and stored at 4° C. (the number of duplicates was 3).
(§15) 7. 90 μL of plasma was added to the wells set at 1 hour, 2 hours and 4 hours (the number of replicates was 3), followed by timing (the final concentration of the test compound was 500 ng/mL, and that of the control was 2 μM).
(§16) 9. All samples (0 minutes, 1 hour, 2 hours, and 4 hours) at different time points on the 96-well plate were placed on a shaker (IKA, MTS 2/4) and shaken at 600 rpm for 60 minutes. The samples were then centrifuged for 15 minutes on a centrifuge machine (Thermo Multifuge×3R) at 5594×g.
(§17) 10. 150 μL of the supernatant was taken out from the centrifuged sample and sent to LC-MS/MS for analysis (conventional peptide LC-MS/MS analysis).

A short description of data set [3]: Plasma stability, human plasma. As to conditions: 37° C., time points 0 minute, 1, 2 and 4 hours, LC-MS/MS, read-out: Human plasma (T1/2 (h)) (converted). The method, then: as §1, §2, §3, §4, §5, §6, §7, §8, §9, §10, §11, §12, §13, §14, §15, §16, §17

SMILES strings stand for the structures. Square brackets hold non-standard residues; d marks the D form. Peptide text beside a SMILES is read from it. * marks the point of attachment. Hydrocinnamoyl = O=C(CCc1ccccc1)*; Tic = O=C(O)[C@@H]1Cc2ccccc2CN1; NMeL = CN[C@@H](CC(C)C)C(=O)O

Take `CC(C)C[C@H](NC(=O)[C@H](Cc1ccccc1)NC(=O)[C@H](N)Cc1ccc(O)cc1)C(=O)N1CCC[C@H]1C(=O)N[C@H](CO)C(=O)N[C@@H](CCC(N)=O)C(=O)N[C@@H](Cc1ccccc1)C(=O)N[C@H](C)C(=O)N1Cc2ccccc2C[C@H]1C(=O)N[C@@H](CO)C(=O)O` [YW-3, (D-Tyr)-Phe-Leu-Pro-(D-Ser)-Gln-Phe-(D-Ala)-Tic-Ser, reference compound] (H-[dY]FLP[dS]QF[dA][Tic]S-OH): the figures for the half-life at 500 ng/mL in data set [1], in data set [2] (read-out: Mouse plasma (T1/2 (h)) (converted)) and in data set [3] were 11.7 h, 35.4 h and 12.8 h, respectively.

In the case of `CC(C)C[C@@H](C(=O)N1CCC[C@H]1C(=O)N[C@H](CO)C(=O)N[C@@H](CCC(N)=O)C(=O)N[C@@H](Cc1ccccc1)C(=O)N[C@H](C)C(=O)N1Cc2ccccc2C[C@H]1C(=O)N[C@@H](CO)C(=O)O)N(C)C(=O)[C@H](Cc1ccccc1)NC(=O)[C@@H](Cc1ccc(O)cc1)NC(=O)CCc1ccccc1` [YW-111, 3-phenylpropanoyl-(D-Tyr)-Phe-(NMe-Leu)-Pro-(D-Ser)-Gln-Phe-(D-Ala)-Tic-Ser-OH] (Hydrocinnamoyl-[dY]F[NMeL]P[dS]QF[dA][Tic]S-OH), the half-life at 500 ng/mL in data set [1] was > 71 h; in data set [3] it was 71 h. Further, the “Mouse plasma (T1/2 (h))” value in data set [2] (500 ng/mL) was “Very long”.
